Results published in paper PMC9144936, “New Cu^+2 Complexes with N-Sulfonamide Ligands: Potential Antitumor, Antibacterial, and Antioxidant Agents” (Molecules, 2022).

What was measured:
Assay type in all cases: cell-based
[1] = system: human radical growth phase melanoma cell line (WM35); test: MTT cytotoxicity assay, WM35; conditions: for IC50: WM35 cells, MTT
Protocol: (§1) Three cell lines were used to determine the cytotoxicity of the complexes, a human cervical carcinoma line (HeLa), a human radical growth phase melanoma cell line (WM35), and a normal fibroblastic epithelial cell line (HFL1) using the MTT method. The cells were exposed to C1 and C2 complexes in different concentrations (50, 25, 12.5, 2, and 0.2 µM) at 24, 48, and 72 h. As positive contro, cisplatin was used.
(§2) To determine the cytotoxicity of the copper complexes, three cell lines were used: a human cervical carcinoma line (HeLa), a human radical growth phase melanoma cell line (WM35), and a normal fibroblastic epithelial cell line (HFL1). The cell lines were obtained from ATCC (American Type Cell Collection, Manassas, VA 20110-2209, USA) and were maintained in DMEM (Sigma-Aldrich, Saint Louis, Missouri, USA) supplemented with 10% fetal bovine serum (Hyclone), 1 mM glutamine (Sigma-Aldrich), and 1% antibiotic antimycotic 100× (Sigma-Aldrich). The cells were cultured at 37 °C in an atmosphere of 5% CO2 and 95% relative humidity.
(§3) The cytotoxicity assays were performed using the MTT assay (3-(4,5-dimethylthiazol-2-yl)-2,5-diphenyl tetrazolium bromide-Sigma Aldrich). Cells were plated at a density of 1 × 10^5 cells/well in 96-well plates for 24 h in normal propagation media. The cultures were then exposed to C1 and C2 complexes in different concentrations (50, 25, 12.5, 2, and 0.2 µM). The complexes were first solubilized in DMSO (Sigma) and then serial dilutions in media were performed until the final concentration of DMSO was less than 1%. As a positive control, cisplatin (Ebewe Pharma Ges.m.b.H. Nfg. KG, Austria) was used, in the same concentrations as the complexes. As a negative control, cell lines cultivated in normal expansion medium with the same amount of DMSO added were used. The cellular viability was determined using the MTT assay at 24, 48, and 72 h, respectively. Formazan particles were solubilized with DMSO and absorbances were determined at 550 nm using a microplate reader (Bio-Rad, Hercules, CA, USA). The cytotoxic activity, expressed as IC50 values representing the complex solution required to inhibit 50% of the cell proliferation, were calculated from the calibration curve by nonlinear regression. Each experiment was carried out in triplicate.

[2] = system: normal fibroblastic epithelial cell line (HFL1); test: MTT cytotoxicity assay, HFL1; conditions: HFL1 cells
Protocol: as §1, §2, §3

[3] = system: Escherichia coli ATCC 10536; test: Disk diffusion method, E. coli; conditions: complexes 5 µL of 1 mg/mL; 25 µg Amoxicillin, 5 µg Norfloxacin; 24 h, 37 °C
From the text: (§4) The disk diffusion method was used to determine the antibacterial activity of the C1 and C2 copper complexes on four reference microbial strains, two Gram-positive (Staphylococcus aureus and Bacillus cerreus) and two Gram-negative (Escherichia coli and Pseudomonas aeruginosa) strains. The disk diffusion method was used to determine the antibacterial activity of the C1 and C2 copper complexes. The method was adapted for the purposes of the current study, according to the standards developed by the Clinical and Laboratory Standards Institute. Four reference microbial strains, two Gram-positive (Staphylococcus aureus ATCC […] and Bacillus cerreus ATCC 14579) and two Gram-negative (Escherichia coli ATCC 10536 and Pseudomonas aeruginosa ATCC 27853) strains, were used for in vitro susceptibility testing. These reference microbial strains were obtained from the American Type Culture Collection (ATCC, Manassas, VA, USA). As positive controls, Amoxicillin (Oxoid Ltd., Basingstoke, UK) and Norfloxacin (Sigma-Aldrich) were used. For each of the four species, an initial suspension of bacterial cultures was inoculated on nutrient agar plates (Merck KGaA, Darmstadt, Germany), incubated for 24 h at 37 ± 2 °C and resuspended in a physiological saline buffer to a […] concentration (on a 0.5 McFarland scale), and further inoculated on Muëller Hinton agar plates (Merck KGaA, Darmstadt, Germany). […] After inoculation, the medium surface was dried and 8 wells were radially drilled 1.5 cm from the outer edge, 3 cm apart. From aliquot samples of 1 mg/mL of each copper complex dissolved in DMSO and incorporated in sterile liquid medium, 5 μL was placed in each of the 8 wells and left for 30 min to diffuse into the agar plates. The plates were then incubated for 24 h at 37 ± 2 °C. Then, 25 μg Amoxicillin and 5 μg Norfloxacin served as a positive controls, while DMSO 0.75% was used as a negative control. Readings were conducted by measuring the diameter of the inhibition zone (Halo Zone Test, in mm). The germ sensitivity of the copper complexes was estimated by comparing the diameter of the inhibition area to that generated by the regular antibiotics with known inhibition values. […] All tests were triplicated, and the measured diameters of the inhibition zone were expressed (in mm) as mean ± standard deviation.

[4] = system: Pseudomonas aeruginosa ATCC 27853; test: Disk diffusion method, P. aeruginosa; conditions: complexes 5 µL of 1 mg/mL; 5 µg Norfloxacin; 24 h, 37 °C
From the text: as §4

[5] = system: Staphylococcus aureus ATCC 6538P; test: MIC, serial broth microdilution, S. aureus; conditions: 24 h, 37 °C
Protocol: (§5) The values of MIC, defined as the lowest concentration of antimicrobial complex that prevents visible growth of germs, are presented in Table S4 in the Supplementary Material. To quantify the copper complexes effectiveness as antibacterial agents, their minimum inhibitory concentrations (MICs) were determined using the serial broth microdilution method described by Quinn et al. and Markey et al.. The method was adapted for the purposes of the current study, according to the standards developed by the Clinical and Laboratory Standards Institute. The tests were performed on the same Gram-positive and Gram-negative reference microbial strains. Ten successive dilutions of the copper complexes solutions (1/2 to 1/1024) in nutrient broth (Merck KGaA, Darmstadt, Germany) were performed and then were placed in sterile microplates (one each for every copper complex). The microplates were incubated at 37 ± 2 °C for 24 h. Comparisons of the amount of bacterial growth in each well containing copper complexes solutions with the amount of growth in the growth control wells were performed and the maximal dilution for which the tested copper complexes inhibited bacterial growth was determined.

[6] = system: Bacillus cerreus ATCC 14579; test: MIC, serial broth microdilution, B. cerreus; conditions: 24 h, 37 °C
Protocol: as §5

[7] = system: Escherichia coli ATCC 10536; test: MIC, serial broth microdilution, E. coli; conditions: 24 h, 37 °C
Protocol: as §5

| Substance | IC50 ([1]; 24 h) [µM] | IC50 ([1]; 48 h) [µM] | IC50 ([1]; 72 h) [µM] | IC50 ([2]; 24 h) [µM] | IC50 ([2]; 48 h) [µM] | IC50 ([2]; 72 h) [µM] | Halo Zone Test (diameter of the inhibition zone) [3] [mm] | Halo Zone Test (diameter of the inhibition zone) [4] [mm] | MIC [5] [µg/mL] | MIC [6] [µg/mL] | MIC [7] [µg/mL] | IC50 value compared with cisplatin ([1]; WM35 cell lines, 24 h) |
| --- | --- | --- | --- | --- | --- | --- | --- | --- | --- | --- | --- | --- |
| [Cu(N-(5-(4-Methylphenyl)-[1,3,4]-Thiadiazole-2-yl) Naphtalenesulfonamidate)2(H2O)3] [C1] | 41.35 ± 0.19 | 23.87 ± 0.17 | 15.42 ± 0.08 | 44.7 ± 0.51 | 7.38 ± 0.12 | 3.75 ± 0.15 | 14 ± 0.11 | 15 ± 0.32 | 0.289 | 0.304 | 0.231 |  |
| [Cu(N-(5-Ethyl--[1,3,4]-Thiadiazole-2-yl) Naphtalenesulfonamidate)2(py)2(H2O)] [C2] | 13 ± 0.15 | 8.11 ± 0.13 | 4.66 ± 0.07 | 18 ± 1.08 | 5.55 ± 0.22 | 2.03 ± 0.04 | 16 ± 0.21 | 19 ± 0.19 | 0.202 | 0.293 | 0.184 | about two times lower |
